# Test results as given in PubChem BioAssay AID2060512 (Molecular Pharmacology Branch, DTP, NCI, 2025).
# System: 186277-243-T-J2-PDC complex spheroid viability
# Experiment: Anticancer human tumor 186277-243-T-J2-PDC patient-derived colon adenocarcinoma cell line growth inhibition [GQUAD]
# Conditions: for IC50: curve of first compound; for viability, T/C: stronger effect = lower value
# Text: DNA G-quadruplex Stabilizer Agents in Combinations in Complex Spheroids
# A high-throughput screen of multi-cell type tumor spheroids was designed to identify active combinations of DNA G-quadruplex stabilizer agents and targeted small molecules. Complex spheroids include a stromal component modeled by human endothelial cells (HUVEC) and fibroblasts modeled by human mesenchymal stem cells (MSCs). The concentration ranges selected for each drug and investigational agent were based upon clinically achievable concentrations if the clinical Cmax of the agent was known.
# Compounds. The drugs and investigational agents: pidnarulex (CX-5461; NSC782164), APTO-253 (NSC789042), BRACO-19 (NSC847499), peposertib (NSC802822), ceralasertib (NSC780249), elimusertib (NSC800525), camonsertib (NSC841442), AZD-1390 (NSC803789), olaparib (NSC753686), talazoparib (NSC767125), ART-558 (NSC835418), sotorasib (NSC818433), MRTX-1133 (NSC836407), SN-38 (NSC673596), topotecan (NSC609699), etoposide (NSC141540), doxorubicin (NSC123127), gemcitabine (NSC613327), 5-fluorouracil (NSC19893), paclitaxel (NSC125973), vemurafenib (NSC761431), panobinostat (NSC761190), R-306465 (JNJ-16241199; NSC773264), adavosertib (NSC754352), TP-3654 (NSC805149), carboplatin (NSC241240), KSQ-4279 (NSC840948), and staurosporine (NSC755774) were obtained from the National Cancer Institute (NCI) Developmental Therapeutics Program Chemical Repository (34). The FDA-approved anticancer drug set is available from the NCI Developmental Therapeutics Program. […] The stock solutions were prepared in dimethyl sulfoxide (DMSO, Sigma-Aldrich, St. Louis, MO, cat. D2650) at 800-fold the tested concentration and stored at -70 degrees C prior to their use. All drugs and investigational agents were tested over a range starting from a high concentration at or near the clinical Cmax and decreasing in half-log increments. If the clinical Cmax for an agent had not been determined, the highest concentration tested was 10 microM.
# 2.3 Cell Culture. All cells were maintained in an incubator at 37 degrees C and 5% CO2 with 95% humidity. The PDC lines were cultured according to standard operating procedures established by the NCI PDMR. All PDCs were thawed and cultured in Matrigel-coated flasks prepared with a working solution of 1X Ham's F-12 nutrient mix, without supplementation (Invitrogen, cat. 11765054), 100 U/mL penicillin-streptomycin (Invitrogen, cat. 15140122), and 2.5% Matrigel (Corning Inc., cat. 354248) for the first three passages. The 857933-349-R-J2-PDC line was cultured in 6C/Colon 1B media, which includes advanced DMEM/F-12 (Thermo Fisher Scientific, cat. 12634028), 10 mM HEPES (Thermo Fisher Scientific, cat. 15630080), 1X GlutaMAX supplement (Thermo Fisher Scientific, cat. 35050061), 0.1 mg/mL primocin (InvivoGen, cat. ant-pm-2), 10% defined fetal bovine serum, heat inactivated (HyClone Laboratories Inc., cat. SH30070.03HI), 50% L-WRN conditioned media (ATCC, cat. CRL-3276), 1.25 mM N-Acetyl-L-cysteine (Sigma-Aldrich, cat. A9165), 10 mM nicotinamide (Sigma-Aldrich, cat. N0636), 1X B-27 supplement (Thermo Fisher Scientific, cat. 17504044), 1X N-2 supplement (Thermo Fisher Scientific, cat. 17502048), 10 microM Y-27632 dihydrochloride (Tocris Bioscience, cat. 1254), and 50 ng/mL human EGF recombinant protein (Thermo Fisher Scientific, cat. PHG0311). The 485176-168-R4-J1-PDC line was cultured in Panc media, which includes all 6C/Colon 1B media components plus 100 ng/mL human FGF-10 (Thermo Fisher Scientific, cat. 100-26), 500 nM SB-431542 (Selleckchem, cat. S1067), and gastrin (Tocris, cat. 3006).
# […]
# [1] = second compound 0.0316 µM, first compound 0.0316 µM
# [2] = second compound 0.0316 µM, first compound 0.1 µM
# [3] = second compound 0.0316 µM, first compound 0.316 µM
# [4] = second compound 0.0316 µM, first compound 1 µM
# [5] = second compound 0.0316 µM, first compound 3.16 µM
# [6] = second compound 0.0316 µM, first compound 10 µM
# [7] = second compound 0.1 µM, first compound 0.0316 µM
# [8] = second compound 0.1 µM, first compound 0.1 µM
# [9] = second compound 0.1 µM, first compound 0.316 µM
# [10] = second compound 0.1 µM, first compound 1 µM
# [11] = second compound 0.1 µM, first compound 3.16 µM
# [12] = second compound 0.1 µM, first compound 10 µM
# [13] = second compound 0.316 µM, first compound 0.0316 µM
# [14] = second compound 0.316 µM, first compound 0.1 µM
# [15] = second compound 0.316 µM, first compound 0.316 µM
# [16] = second compound 0.316 µM, first compound 1 µM
# [17] = second compound 0.316 µM, first compound 3.16 µM
# [18] = second compound 0.316 µM, first compound 10 µM
# [19] = second compound 1 µM, first compound 0.0316 µM
# [20] = second compound 1 µM, first compound 0.1 µM
# [21] = second compound 1 µM, first compound 0.316 µM
# [22] = second compound 1 µM, first compound 1 µM
# [23] = second compound 1 µM, first compound 3.16 µM
# [24] = second compound 1 µM, first compound 10 µM
# [25] = second compound 3.16 µM, first compound 0.0316 µM
# [26] = second compound 3.16 µM, first compound 0.1 µM
# [27] = second compound 3.16 µM, first compound 0.316 µM
# [28] = second compound 3.16 µM, first compound 1 µM
# [29] = second compound 3.16 µM, first compound 3.16 µM
# [30] = second compound 3.16 µM, first compound 10 µM
# [31] = second compound 10 µM, first compound 0.0316 µM
# [32] = second compound 10 µM, first compound 0.1 µM
# [33] = second compound 10 µM, first compound 0.316 µM
# [34] = second compound 10 µM, first compound 1 µM
# [35] = second compound 10 µM, first compound 3.16 µM
# [36] = second compound 10 µM, first compound 10 µM
# 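Also: spheroids exposed to drugs for 7 days.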
# 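For viability, T/C in this document: 100% = DMSO vehicle control viability.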
compound,measurement,setting,value
COc1cccc2c1C(=O)c1c(O)c3c(c(O)c1C2=O)CC(O)(C(=O)CO)CC3OC1CC(N)C(O)C(C)O1 (centres undefined) + Cc1[nH]c2ccc(F)cc2c1-c1nc2c3cccnc3c3ncccc3c2[nH]1,IC50,second compound 0.0316 µM,0.696 µM
same,IC50,second compound 0.1 µM,0.511 µM
same,IC50,second compound 0.316 µM,0.686 µM
same,IC50,second compound 1 µM,0.674 µM
same,IC50,second compound 3.16 µM,0.623 µM
same,IC50,second compound 10 µM,0.667 µM
same,"viability, T/C",[1],104%
same,"viability, T/C",[2],99.2%
same,"viability, T/C",[3],95.9%
same,"viability, T/C",[4],28.9%
same,"viability, T/C",[5],5.65%
same,"viability, T/C",[6],0.19%
same,"viability, T/C",[7],117%
same,"viability, T/C",[8],88.9%
same,"viability, T/C",[9],70.5%
same,"viability, T/C",[10],29.5%
same,"viability, T/C",[11],0.54%
same,"viability, T/C",[12],0.13%
same,"viability, T/C",[13],96.1%
same,"viability, T/C",[14],116%
same,"viability, T/C",[15],81.4%
same,"viability, T/C",[16],34.9%
same,"viability, T/C",[17],0.6%
same,"viability, T/C",[18],0.26%
same,"viability, T/C",[19],104%
same,"viability, T/C",[20],96.3%
same,"viability, T/C",[21],85.5%
same,"viability, T/C",[22],32%
same,"viability, T/C",[23],0.77%
same,"viability, T/C",[24],0.15%
same,"viability, T/C",[25],84.7%
same,"viability, T/C",[26],92.1%
same,"viability, T/C",[27],75%
same,"viability, T/C",[28],32.4%
same,"viability, T/C",[29],1.37%
same,"viability, T/C",[30],0.86%
same,"viability, T/C",[31],90.4%
same,"viability, T/C",[32],98%
same,"viability, T/C",[33],81.5%
same,"viability, T/C",[34],32.8%
same,"viability, T/C",[35],1.17%
same,"viability, T/C",[36],0.68%
O=C(c1cc(Cc2n[nH]c(=O)c3ccccc23)ccc1F)N1CCN(C(=O)C2CC2)CC1 + Cc1cnc(CNC(=O)c2c(=O)c3ccc(N4CCCN(C)CC4)nc3n3c2sc2ccccc23)cn1,IC50,second compound 0.0316 µM,> 10 µM
same,IC50,second compound 0.1 µM,5.01 µM
same,IC50,second compound 0.316 µM,> 10 µM
same,IC50,second compound 1 µM,< 0.0316 µM
same,IC50,second compound 3.16 µM,< 0.0316 µM
same,IC50,second compound 10 µM,< 0.0316 µM
same,"viability, T/C",[1],99.9%
same,"viability, T/C",[2],78.8%
same,"viability, T/C",[3],83.2%
same,"viability, T/C",[4],83.6%
same,"viability, T/C",[5],60.9%
same,"viability, T/C",[6],53%
same,"viability, T/C",[7],80.7%
same,"viability, T/C",[8],62.8%
same,"viability, T/C",[9],62.7%
same,"viability, T/C",[10],60.7%
same,"viability, T/C",[11],53%
same,"viability, T/C",[12],45.9%
same,"viability, T/C",[13],64.6%
same,"viability, T/C",[14],56.8%
same,"viability, T/C",[15],64.6%
same,"viability, T/C",[16],62.9%
same,"viability, T/C",[17],50.8%
same,"viability, T/C",[18],48.4%
same,"viability, T/C",[19],46.3%
same,"viability, T/C",[20],48.4%
same,"viability, T/C",[21],43.5%
same,"viability, T/C",[22],47.9%
same,"viability, T/C",[23],50%
same,"viability, T/C",[24],49%
same,"viability, T/C",[25],44.2%
same,"viability, T/C",[26],39.2%
same,"viability, T/C",[27],38.3%
same,"viability, T/C",[28],38.2%
same,"viability, T/C",[29],43.5%
same,"viability, T/C",[30],38.9%
same,"viability, T/C",[31],33.1%
same,"viability, T/C",[32],42.3%
same,"viability, T/C",[33],34.7%
same,"viability, T/C",[34],43.8%
same,"viability, T/C",[35],49.5%
same,"viability, T/C",[36],38.9%
